Reference: patent US20120270237A9, “METHODS FOR THE IDENTIFICATION OF KINASE INTERACTING MOLECULES AND FOR THE PURIFICATION OF KINASE PROTEINS” (Cellzone AG, priority 2009, published 2012)

What was measured:
Experiment in all cases: Kinobeads competition binding, L-363 cell lysate
Details in all cases: 10 μM free compound, L-363 lysate
[1] = target: T1, TEC (Homo sapiens, UniProt P42680); set-up: endogenous in cells
T1 sequence (P42680 1-631): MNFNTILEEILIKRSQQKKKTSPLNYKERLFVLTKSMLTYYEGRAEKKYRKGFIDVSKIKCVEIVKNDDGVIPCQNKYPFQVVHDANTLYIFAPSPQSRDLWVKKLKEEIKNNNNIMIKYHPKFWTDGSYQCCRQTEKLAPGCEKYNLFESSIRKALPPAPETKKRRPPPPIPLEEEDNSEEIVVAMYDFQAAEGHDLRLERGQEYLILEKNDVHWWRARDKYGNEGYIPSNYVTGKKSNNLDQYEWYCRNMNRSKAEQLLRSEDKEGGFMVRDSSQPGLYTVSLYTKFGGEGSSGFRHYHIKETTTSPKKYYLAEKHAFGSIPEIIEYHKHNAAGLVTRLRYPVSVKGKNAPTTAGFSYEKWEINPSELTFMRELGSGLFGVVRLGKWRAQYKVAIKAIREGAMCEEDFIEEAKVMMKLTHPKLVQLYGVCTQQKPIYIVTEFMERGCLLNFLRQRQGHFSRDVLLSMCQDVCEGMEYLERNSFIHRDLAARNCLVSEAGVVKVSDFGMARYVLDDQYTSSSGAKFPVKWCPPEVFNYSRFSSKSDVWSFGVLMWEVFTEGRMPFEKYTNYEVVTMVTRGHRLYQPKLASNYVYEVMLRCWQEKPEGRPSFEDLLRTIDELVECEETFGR
Method: (§1) To one aliquot of cell lysate 10 μM of the free compound (FIG. 3, CZC31326) was added and allowed to bind to proteins in the lysate. Then the affinity matrix with the immobilized compound was added to capture proteins that were not interacting with the previously added free compound. Beads were separated from the lysate and bead bound proteins were eluted in SDS sample buffer and subsequently separated by SDS-Polyacrylamide gel electrophoresis (FIG. 8). Suitable gel bands were cut out and subjected to in-gel proteolytic digestion with trypsin. The second lysate aliquot was processed identically, however no free compound was added (DMSO solvent control). Peptides originating from samples 1 and 2 were labeled with iTRAQ reagents (iTRAQ 114 and iTRAQ 117) and the combined samples were analyzed with a nano-flow liquid chromatography system coupled online to a tandem mass spectrometer (LC-MS/MS) experiment followed by iTRAQ reporter ion quantification in the MS/MS spectra as described in Example 2.
(§2) For this experiment the human plasma cell leukaemia line L-363 was used (German Collection of Microorganisms and Cell Cultures, DSMZ number ACC49, Braunschweig, Germany). Cells were treated for three hours with 20 μM of the proteasome inhibitor MG132 (Z-Leu-Leu-Leu-al, Sigma C2211) prior to cell harvesting.

[2] = target: CaMK2g (Homo sapiens, UniProt Q13555); set-up: endogenous in cells
Sequence of CaMK2g (Q13555 whole entry): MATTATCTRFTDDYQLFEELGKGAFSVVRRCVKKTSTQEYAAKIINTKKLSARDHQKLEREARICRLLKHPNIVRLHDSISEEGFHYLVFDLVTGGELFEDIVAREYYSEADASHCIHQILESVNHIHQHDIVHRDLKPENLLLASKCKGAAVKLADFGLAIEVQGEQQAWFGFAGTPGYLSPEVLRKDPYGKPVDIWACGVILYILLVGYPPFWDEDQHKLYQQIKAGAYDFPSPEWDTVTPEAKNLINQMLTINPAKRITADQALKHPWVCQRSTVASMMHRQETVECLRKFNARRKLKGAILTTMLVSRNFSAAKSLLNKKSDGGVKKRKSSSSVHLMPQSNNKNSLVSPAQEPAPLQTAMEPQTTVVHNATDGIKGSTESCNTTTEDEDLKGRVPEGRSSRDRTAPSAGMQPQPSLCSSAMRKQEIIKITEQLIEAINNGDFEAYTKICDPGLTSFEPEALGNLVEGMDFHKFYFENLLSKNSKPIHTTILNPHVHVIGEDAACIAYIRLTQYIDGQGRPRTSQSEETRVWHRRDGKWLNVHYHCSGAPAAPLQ
Method: as §1, §2

[3] = target: CDK5 (Homo sapiens, UniProt Q00535); set-up: endogenous in cells
Sequence of CDK5 (Q00535 whole entry): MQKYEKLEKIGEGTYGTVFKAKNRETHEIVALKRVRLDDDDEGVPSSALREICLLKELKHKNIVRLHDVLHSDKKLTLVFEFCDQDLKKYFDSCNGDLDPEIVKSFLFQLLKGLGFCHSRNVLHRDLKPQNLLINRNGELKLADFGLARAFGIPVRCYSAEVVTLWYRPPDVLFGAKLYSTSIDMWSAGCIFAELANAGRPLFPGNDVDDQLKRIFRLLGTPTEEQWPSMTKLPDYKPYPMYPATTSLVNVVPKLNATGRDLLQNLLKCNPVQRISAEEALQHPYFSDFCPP
Method: as §1, §2

[4] = target: CaMK2d (Homo sapiens, UniProt Q13557); set-up: endogenous in cells
Sequence of CaMK2d (Q13557 whole entry): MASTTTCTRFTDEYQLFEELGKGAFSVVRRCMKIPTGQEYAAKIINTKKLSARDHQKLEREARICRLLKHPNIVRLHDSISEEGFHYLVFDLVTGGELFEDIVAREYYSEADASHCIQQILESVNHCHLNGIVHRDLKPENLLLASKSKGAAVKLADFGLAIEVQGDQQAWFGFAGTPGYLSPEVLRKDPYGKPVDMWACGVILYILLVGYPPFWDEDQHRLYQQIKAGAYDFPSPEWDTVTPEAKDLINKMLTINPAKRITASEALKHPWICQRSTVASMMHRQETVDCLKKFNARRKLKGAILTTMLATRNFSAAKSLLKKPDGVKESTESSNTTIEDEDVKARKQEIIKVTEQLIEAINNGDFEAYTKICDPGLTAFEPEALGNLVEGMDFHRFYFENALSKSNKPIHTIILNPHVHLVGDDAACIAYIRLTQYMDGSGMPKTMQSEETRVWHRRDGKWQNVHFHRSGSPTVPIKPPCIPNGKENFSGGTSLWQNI
Method: as §1, §2

[5] = target: MARK3 (Homo sapiens, UniProt P27448); set-up: endogenous in cells
Sequence of MARK3 (P27448 whole entry): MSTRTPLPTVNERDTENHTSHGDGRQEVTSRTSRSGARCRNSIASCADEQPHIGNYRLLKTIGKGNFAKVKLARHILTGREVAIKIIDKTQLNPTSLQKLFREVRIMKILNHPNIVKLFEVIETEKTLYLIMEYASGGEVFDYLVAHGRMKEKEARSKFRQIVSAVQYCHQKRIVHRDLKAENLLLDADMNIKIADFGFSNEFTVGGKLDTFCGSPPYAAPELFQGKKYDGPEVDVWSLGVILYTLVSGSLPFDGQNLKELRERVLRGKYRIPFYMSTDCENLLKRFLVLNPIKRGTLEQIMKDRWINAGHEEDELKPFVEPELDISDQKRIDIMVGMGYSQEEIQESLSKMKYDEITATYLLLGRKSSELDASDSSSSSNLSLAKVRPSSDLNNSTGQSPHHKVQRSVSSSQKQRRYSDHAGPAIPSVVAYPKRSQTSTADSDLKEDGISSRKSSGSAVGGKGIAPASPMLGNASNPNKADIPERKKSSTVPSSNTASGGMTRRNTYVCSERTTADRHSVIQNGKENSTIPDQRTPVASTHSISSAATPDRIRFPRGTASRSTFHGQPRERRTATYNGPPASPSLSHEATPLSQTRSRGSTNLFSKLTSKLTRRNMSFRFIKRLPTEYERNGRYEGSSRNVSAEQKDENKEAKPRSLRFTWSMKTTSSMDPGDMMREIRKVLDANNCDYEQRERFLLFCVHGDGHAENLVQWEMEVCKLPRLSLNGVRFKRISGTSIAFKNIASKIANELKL
Method: as §1, §2

[6] = target: Wee1 (Homo sapiens, UniProt P30291); set-up: endogenous in cells
Sequence of Wee1 (P30291 whole entry): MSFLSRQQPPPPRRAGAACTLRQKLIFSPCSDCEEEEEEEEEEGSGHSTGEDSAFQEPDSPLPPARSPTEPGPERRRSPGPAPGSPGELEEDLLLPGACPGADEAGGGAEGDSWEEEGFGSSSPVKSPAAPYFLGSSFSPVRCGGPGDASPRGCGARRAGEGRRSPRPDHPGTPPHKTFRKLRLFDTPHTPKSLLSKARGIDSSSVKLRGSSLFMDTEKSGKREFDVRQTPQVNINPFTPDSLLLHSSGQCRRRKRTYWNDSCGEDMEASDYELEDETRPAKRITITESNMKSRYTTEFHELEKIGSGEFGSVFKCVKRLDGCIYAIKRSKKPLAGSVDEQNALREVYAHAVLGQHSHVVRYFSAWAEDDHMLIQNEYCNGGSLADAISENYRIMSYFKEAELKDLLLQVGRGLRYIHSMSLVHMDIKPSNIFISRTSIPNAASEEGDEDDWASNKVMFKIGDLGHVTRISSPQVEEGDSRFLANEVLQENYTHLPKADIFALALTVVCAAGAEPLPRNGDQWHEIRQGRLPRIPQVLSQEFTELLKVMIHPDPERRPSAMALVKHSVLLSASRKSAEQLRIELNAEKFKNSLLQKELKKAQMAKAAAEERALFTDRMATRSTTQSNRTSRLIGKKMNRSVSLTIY
Method: as §1, §2

[7] = target: MPSK1 (Homo sapiens, UniProt O75716); set-up: endogenous in cells
Method: as §1, §2

[8] = target: IRAK1 (Homo sapiens, UniProt P51617); set-up: endogenous in cells
Sequence of IRAK1 (P51617 whole entry): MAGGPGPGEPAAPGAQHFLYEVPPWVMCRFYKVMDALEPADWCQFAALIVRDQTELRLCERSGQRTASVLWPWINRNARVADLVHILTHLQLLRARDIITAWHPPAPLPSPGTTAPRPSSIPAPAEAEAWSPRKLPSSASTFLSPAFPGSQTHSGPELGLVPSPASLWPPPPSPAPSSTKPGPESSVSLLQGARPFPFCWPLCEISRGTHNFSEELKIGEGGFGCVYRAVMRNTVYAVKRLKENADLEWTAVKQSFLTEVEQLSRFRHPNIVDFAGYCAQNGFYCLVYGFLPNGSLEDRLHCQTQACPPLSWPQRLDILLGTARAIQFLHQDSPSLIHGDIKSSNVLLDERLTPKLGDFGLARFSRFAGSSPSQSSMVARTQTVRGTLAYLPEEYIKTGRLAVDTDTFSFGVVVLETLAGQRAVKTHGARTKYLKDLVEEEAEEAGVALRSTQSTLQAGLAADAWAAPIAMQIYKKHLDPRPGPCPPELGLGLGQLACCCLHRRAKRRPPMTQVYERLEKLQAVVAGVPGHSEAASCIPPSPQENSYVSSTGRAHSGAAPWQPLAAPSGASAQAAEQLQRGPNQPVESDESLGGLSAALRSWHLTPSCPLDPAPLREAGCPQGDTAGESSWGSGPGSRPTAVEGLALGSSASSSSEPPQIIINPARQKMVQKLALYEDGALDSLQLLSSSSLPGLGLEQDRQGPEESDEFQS
Method: as §1, §2

[9] = target: MLK3 (Homo sapiens, UniProt Q16584); set-up: endogenous in cells
Sequence of MLK3 (Q16584 whole entry): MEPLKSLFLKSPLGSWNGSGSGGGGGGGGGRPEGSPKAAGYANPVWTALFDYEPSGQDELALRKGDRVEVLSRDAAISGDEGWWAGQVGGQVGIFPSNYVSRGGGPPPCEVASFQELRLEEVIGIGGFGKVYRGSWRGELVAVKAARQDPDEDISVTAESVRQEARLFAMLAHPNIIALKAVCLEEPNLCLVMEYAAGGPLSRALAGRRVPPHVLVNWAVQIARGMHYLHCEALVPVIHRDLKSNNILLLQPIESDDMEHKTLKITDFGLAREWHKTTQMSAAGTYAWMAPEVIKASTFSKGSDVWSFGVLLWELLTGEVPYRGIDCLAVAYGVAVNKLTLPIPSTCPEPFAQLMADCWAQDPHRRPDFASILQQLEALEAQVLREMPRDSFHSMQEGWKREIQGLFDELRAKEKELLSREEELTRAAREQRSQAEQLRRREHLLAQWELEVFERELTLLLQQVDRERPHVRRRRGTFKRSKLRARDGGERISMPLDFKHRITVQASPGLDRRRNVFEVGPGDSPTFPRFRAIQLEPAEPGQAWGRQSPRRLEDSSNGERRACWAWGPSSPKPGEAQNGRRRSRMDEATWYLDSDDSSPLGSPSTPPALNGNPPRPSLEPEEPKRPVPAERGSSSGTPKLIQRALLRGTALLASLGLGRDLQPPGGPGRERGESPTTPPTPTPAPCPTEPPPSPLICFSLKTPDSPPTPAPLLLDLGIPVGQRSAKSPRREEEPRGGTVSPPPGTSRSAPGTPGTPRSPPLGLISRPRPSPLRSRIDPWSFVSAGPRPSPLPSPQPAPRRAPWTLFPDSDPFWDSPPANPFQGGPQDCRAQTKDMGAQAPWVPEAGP
Method: as §1, §2

[10] = target: MYT1 (Homo sapiens, UniProt Q99640); set-up: endogenous in cells
Method: as §1, §2

[11] = target: T2, NEK9 (Homo sapiens, UniProt Q8TD19); set-up: endogenous in cells; host or cells: L-363 (MG132-treated)
T2 sequence (Q8TD19 1-979): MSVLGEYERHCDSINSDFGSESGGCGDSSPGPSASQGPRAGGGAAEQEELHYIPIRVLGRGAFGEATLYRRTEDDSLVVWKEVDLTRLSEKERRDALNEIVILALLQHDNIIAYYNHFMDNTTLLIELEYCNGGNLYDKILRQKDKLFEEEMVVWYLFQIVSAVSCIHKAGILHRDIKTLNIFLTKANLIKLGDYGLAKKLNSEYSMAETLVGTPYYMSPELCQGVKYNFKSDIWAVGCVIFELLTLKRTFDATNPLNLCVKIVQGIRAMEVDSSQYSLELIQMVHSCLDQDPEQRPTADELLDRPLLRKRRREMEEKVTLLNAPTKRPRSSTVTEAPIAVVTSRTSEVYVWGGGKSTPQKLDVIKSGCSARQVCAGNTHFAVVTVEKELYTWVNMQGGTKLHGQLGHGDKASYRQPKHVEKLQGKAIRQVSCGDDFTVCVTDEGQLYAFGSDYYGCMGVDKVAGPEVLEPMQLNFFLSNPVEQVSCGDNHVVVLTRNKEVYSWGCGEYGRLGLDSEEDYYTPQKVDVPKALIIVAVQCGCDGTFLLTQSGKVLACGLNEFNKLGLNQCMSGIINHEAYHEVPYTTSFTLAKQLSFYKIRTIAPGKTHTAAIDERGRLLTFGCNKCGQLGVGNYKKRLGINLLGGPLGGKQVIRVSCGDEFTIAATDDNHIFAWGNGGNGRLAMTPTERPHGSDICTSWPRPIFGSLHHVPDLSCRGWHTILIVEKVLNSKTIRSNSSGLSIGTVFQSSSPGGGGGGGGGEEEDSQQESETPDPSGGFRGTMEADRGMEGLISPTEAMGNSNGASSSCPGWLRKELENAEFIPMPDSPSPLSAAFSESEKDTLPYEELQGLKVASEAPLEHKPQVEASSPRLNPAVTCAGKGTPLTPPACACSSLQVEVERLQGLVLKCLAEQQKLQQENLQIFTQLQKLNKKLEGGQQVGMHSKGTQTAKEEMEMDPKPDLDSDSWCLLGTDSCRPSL
Method: as §1, §2

[12] = target: PAK4 (Homo sapiens, UniProt O96013); set-up: endogenous in cells; host or cells: L-363 (MG132-treated)
Sequence of PAK4 (O96013 whole entry): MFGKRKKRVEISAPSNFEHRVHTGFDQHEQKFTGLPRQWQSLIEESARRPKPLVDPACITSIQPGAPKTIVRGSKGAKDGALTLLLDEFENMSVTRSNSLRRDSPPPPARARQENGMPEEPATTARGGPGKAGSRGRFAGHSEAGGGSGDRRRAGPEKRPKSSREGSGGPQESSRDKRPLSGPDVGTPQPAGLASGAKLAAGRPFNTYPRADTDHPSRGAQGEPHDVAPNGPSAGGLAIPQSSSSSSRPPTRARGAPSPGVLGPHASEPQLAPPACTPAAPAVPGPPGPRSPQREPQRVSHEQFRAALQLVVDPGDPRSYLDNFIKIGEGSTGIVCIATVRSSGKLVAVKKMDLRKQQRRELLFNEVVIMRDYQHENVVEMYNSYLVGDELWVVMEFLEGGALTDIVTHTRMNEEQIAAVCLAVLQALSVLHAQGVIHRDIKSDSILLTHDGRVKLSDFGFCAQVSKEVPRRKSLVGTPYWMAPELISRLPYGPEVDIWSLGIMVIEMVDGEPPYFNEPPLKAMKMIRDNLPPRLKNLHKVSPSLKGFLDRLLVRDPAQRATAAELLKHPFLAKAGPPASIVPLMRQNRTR
Method: as §1, §2

inhibition at 10 µM [1]: 92.8%
inhibition at 10 µM [2]: 75.9%
inhibition at 10 µM [3]: 96.4%
inhibition at 10 µM [4]: 78%
inhibition at 10 µM [5]: 97%
inhibition at 10 µM [6]: 96.4%
inhibition at 10 µM [7]: 93.3%
inhibition at 10 µM [8]: 95.1%
Competition % [9]: 97.5%
Competition % [10]: 93.1%
inhibition at 10 µM [12]: 97.3%
Compound: CS(=O)(=O)Nc1ccccc1Nc1nc(Nc2cccc(OCCN)c2)ncc1Cl [CZC31326, N-(2-(2-(3-(2-aminoethoxy)phenylamino)-5-chloropyrimidin-4-ylamino)phenyl)methanesulfonamide]
inhibition at 10 µM [11]: 92.4%
